Experiments:
[1] = molecular target: T1, CT-L activity of purified constitutive proteasome (Homo sapiens, UniProt P28074); experiment: G4 analogs against the CT-L activity of purified proteasomes; format: biochemical
T1 construct: purchased R&D Systems
Method: Initially, purified 20S human proteasomes (CP and IP, R&D Systems) were used to assess the in vitro inhibition of proteasome catalytic activities by G4 and its analogs. In the 96-well format assays involving a 100/4 L total volume, 20S proteasomes (0.5/4 g/mL) were incubated with G4, its analogs, or reference compounds (e.g., carfilzomib) in assay buffer (20 mM Tris-HCl, 0.5 mM EDTA, 0.035% SDS) for 30 min at room temperature. Reactions were initiated by the addition of individual subunit-selective fluorogenic substrates containing the AMC (7-amino-4-methylcoumarin) group. The following substrates were used: for /31 activity, Ac-nLPnLD-AMC (100/4M); for /32 and /32i activity, Boc-LRR-AMC (200/4M); for /35 activity, Ac-WLA-AMC (20/4M); for /31i activity, Ac-PAL-AMC (100/4M); for /35i activity, Ac-ANW-AMC (100/4M). The fluorescence of liberated AMC was measured over a period of 90 min at room temperature using excitation and emission wavelengths of 360 and 460 nm on a SpectraMax M5 fluorescence plate reader (Molecular Devices).
In comparison, modifications at the ring D had little impact on the activity of G4. […] The mechanism by which these compounds enhance the CT-L activity of proteasome is unclear at this time.

[2] = test system: CT-L activity of proteasomes in RPMI 8226 cell extracts; experiment: CT-L activity of proteasomes in RPMI 8226 cell extracts (Suc-LLVY-AMC); format: biochemical, human
Method: (§1) The inhibitory effects of G4-1 on the CT-L, C-L and T-L activities were measured by assessing the hydrolysis of the fluorogenic proteasome substrates Suc-LLVY-AMC, Z-LLE-AMC and Boc-LRR-AMC, respectively. […] FIG. 5C provides a reaction progress curve with 30 min preincubation of RPMI 8226 cell extracts and G4-1. […] FIG. 5E includes the potency of G4-1 in inducing cell death in BxPC-3 cell lines with acquired resistance to bortezomib or carfilzomib. FIG. 5F provides a comparison of IC50 values of BxPC-3 sublines resistant to carfilzomib or bortezomib to its parental cell lines.
(§2) In separate experiments, cytosolic extracts of RPMI-8226 or BxPC-3 cells were prepared according to the method of Kisselev and Goldberg^25 and used in place of purified proteasomes. The fluorescence from liberated AMC of the subunit-selective probe substrates was measured as described above.

[3] = test system: C-L activity of proteasomes in RPMI 8226 cell extracts; experiment: C-L activity of proteasomes in RPMI 8226 cell extracts (Z-LLE-AMC); format: biochemical, human
Method: as §1, §2

[4] = test system: T-L activity of proteasomes in RPMI 8226 cell extracts; experiment: T-L activity of proteasomes in RPMI 8226 cell extracts (Boc-LRR-AMC); format: biochemical, human
Method: as §1, §2

[5] = test system: proteasome in RPMI 8226 cell lysates; experiment: Jump dilution reversibility assay; format: biochemical, human; conditions: preincubation of RPMI 8226 cell extracts for 30 min
Method: In further investigation of the mode of proteasome inhibition by G4-1, a dilution assay was performed following a procedure previously reported.^26 Briefly, RPMI 8226 cell lysates containing 30/4 g of total protein were incubated with G4-1 (10/4M) in 20S proteasome assay buffer for 30 min at room temperature. Lysates treated with G4-1 were subsequently transferred to a semimicrocuvette, and the baseline proteasome activity was determined by measuring the hydrolysis rate of Suc-LLVY-AMC. After establishment of the baseline, lysates treated with G4-1 were rapidly mixed with the 20S proteasome assay buffer, yielding 25-fold dilution. Following this 25-fold dilution from 10 to 0.4/4M G4-1, the hydrolysis of Suc-LLVY-AMC was again monitored over approximately 30 min.

[6] = test system: variety of cancer cell lines including LNCaP prostate cancer cells; experiment: Cytotoxic effects, multiple cancer cell lines; format: cell-based, human
Text: (§3) Human cancer cell lines BxPC-3, H358, H-23, LNCaP, Panc-1, and RPMI 8226 were obtained from the ATCC (American Type Culture Collection) and maintained in the ATCC-recommended media, DMEM or RPMI 1640 supplemented with 10% fetal bovine serum (from GIBCO, CeliGro, and Atlanta Biologicals). BxPC-3 cells with acquired resistance to bortezomib or carfilzomib were established by growing them in the presence of stepwise in-creasing concentrations of the respective drug over a period of approximately 6 months. In order to determine the extent of drug resistance, cytotoxicity assays were performed using BxPC-3 sublines adapted to 60 nM bortezomib and 200 nM carfilzomib, respectively.
(§4) The cytotoxic effects of G4 and its analogs were determined using CellTiter Glo assay or CellTiter 96 Aqueous One Solution Cell Proliferation assay (Promega). Adherent cells (Panc-1, LNCaP, BxPC-3, bortezomib- or carfilzomib-resistant BxPC-3 sublines) growing in log phase were plated at 7000-10000 cells per well. RPMI 8226 cells growing in suspension were collected by centrifugation and plated at 10 000 cells per well. […] After 72 h, the cell viability was determined using the assay protocol recommended by the manufacturers. The resulting signals were quantified using a Veritas microplate luminometer or a SpectraMax M5 microplate spectrophotometer (Molecular Devices).

[7] = test system: BxPC-3 cell lines with acquired resistance to bortezomib or carfilzomib; experiment: Cytotoxic effects, BxPC-3 sublines with acquired resistance to bortezomib or carfilzomib; format: cell-based, human
Text: as §3, §4

[8] = Microsomal stability assay, mouse; format: in vitro ADME; conditions: mouse liver microsomes, compared to carfilzomib and bortezomib
Method: (§5) The metabolic stability profiles of G4-1 and reference compounds (carfilzomib and bortezomib) were assessed by monitoring the disappearance of the test compounds in the presence of liver microsomes. A typical incubation mixture (100 sL total volume) for metabolic stability studies contained 1 sM test compounds, 0.5 mg/mL microsomal protein (pooled Balb/c mouse liver microsomes prepared in-house or BD UltraPool human liver microsomes), 100 mM Tris-HCl buffer (pH 7.4), and NADPH-generating system (5 mM isocitric acid, 0.2 unit/mL isocitric acid dehydrogenase, 5 mM magnesium chloride, 1 mM NADP^+). After preincubation at 37° C. for 5 min, the reactions were started by addition of NADP^+ and further incubated for another 0, 5, 10, 20 min. For control experiments, NADPH and/or liver microsomes were omitted from these incubations. The reactions were terminated by adding 100 sL of ice-cold acetonitrile containing phenytoin (1 sM) as internal standard and keeping on ice for 30 min, followed by centrifugation at 16 100 g for 15 min to obtain the supernatant. Aliquots (5 sL) were then analyzed for substrate disappearance using liquid chromatography-tandem mass spectrometry (Agilent 1200 HPLC instrument interfaced with Applied Biosystems Qtrap 3200) equipped with an electrospray ion source.

[9] = Microsomal stability assay, human; format: in vitro ADME; conditions: human liver microsomes, compared to carfilzomib and bortezomib
Method: as §5

LNCaP tumors [10] = conditions: mouse, in vivo
Method: (§6) Male nude mice bearing LNCaP tumors received intraperitoneal injections of either G4-1 (5 mg/kg), carfilzomib (5 mg/kg), or vehicle alone (8% DMSO in HP-β-cyclodextrin and sodium citrate) twice a week for 4 weeks (n=5 mice/group). Results are expressed as mean and standard deviation.
(§7) Six-week-old male BALB/c athymic nude mice (purchased from Orient Bio Inc., SungNam, Republic of Korea) were maintained in accordance with the National Institute of Toxicological Research of the Korea Food and Drug Administration guidelines as well as the regulations for the care and use of laboratory animals of the animal ethics committee of the Konyang University. LNCaP cells (2×10^6 cells/50 sL) were subcutaneously implanted into each animal. After the xenograft tumors had grown to a size of ‘−100 mm^3, mice (n=5/group) were dosed intraperitoneally twice a week for 4 weeks with G4-1 (5 mg/kg), carfilzomib (5 mg/kg), or vehicle only (8% DMSO in HP-Beta-CD and citrate). Tumor volumes (calculated using the following formula, (width)^2×length/2) and body weights were measured every 4 days during the experimental period. At the end of the experimental period (at day 30), mice were euthanized by cervical dislocation and tumors were isolated and weighed.

LNCaP tumors [11] = experiment: In vivo efficacy assay, LNCaP xenograft; conditions: 5 mg/kg intraperitoneally twice a week for 4 weeks
Method: as §6, §7

[12] = Phase II clinical trials; cited from earlier work

In the case of Cc1ccc(OS(=O)(=O)c2cccc(C(F)(F)F)c2)c(-c2cc(-c3ccccc3)n(CC(=O)N[C@@H]3CCNC3)n2)c1 [G4-1], the “inhibitory potency against the CT-L activity of purified proteasomes” value [1] is reported as “one of the most potent inhibitors”, the “inhibition of proteasomal CT-L activity of cell extracts” value [2] is reported as “effectively inhibit” and the “inhibition of proteasomal C-L activity of cell extracts” value [3] is reported as “effectively inhibit”. The “activity against the T-L activity of cell extracts” value [4] was “no activity”, the “inhibition of proteasomal activity after preincubation” value [5] was “nearly complete inhibition” and the “anticancer activity against cancer cell lines” value [6] was “good anticancer activity”. The “anticancer effect in cell line models with acquired resistance” value [7] was “not negatively impacted”, the metabolic stability [8] was “excellent metabolic stability” and the metabolic stability [9] was “excellent metabolic stability”. For the same compound, the “systemic toxicity in mice” value (LNCaP tumors [10]) was “without apparent systemic toxicity” and the “tumor growth in vivo” value (LNCaP tumors [11]) was “effectively suppressed tumor growth”.
For CC(C)C[C@H](NC(=O)[C@H](CCc1ccccc1)NC(=O)CN1CCOCC1)C(=O)N[C@@H](Cc1ccccc1)C(=O)N[C@@H](CC(C)C)C(=O)[C@@]1(C)CO1 [carfilzomib], the “median duration of response” value [12] is given as 7.8 months, the overall survival [12] is given as roughly 16 months and the response rate [12] is given as “under 25%”. The “body weight over the course of treatment” value (LNCaP tumors [11]) was “weight loss”.

— patent US9493439B1, “Proteasome inhibitors” (UNIVERSITY OF KENTUCKY RESEARCH FOUNDATION, priority 2014, dated 2016)
